From US8980843B2, “Leptin agonist and methods of use” (Temple University—of the Commonwealth System of Higher …, priority 2009, dated 2015)
Entries after “also recorded” stand apart in the source; their conditions may differ. Non-standard residues stand in square brackets, D forms with d. Residues, ends and D or L forms follow the SMILES beside them. *: point of attachment. αGalNAc = CC(=O)N[C@@H]1[C@@H](O)[C@@H](O)[C@@H](CO)O[C@@H]1*; Tyr(3,5-I2) = N[C@@H](Cc1cc(I)c(O)c(I)c1)C(=O)O; Acp = not defined here; Ahx = NCCCCCC(=O)O

What was measured:
[1] = tested on: ObR-positive LN229 glioblastoma cells; assay: Cell proliferation assay, ObR-positive LN229 glioblastoma cells; type: cell-based; conditions: for Selectivity (EC/IC): LN229 cells
Experimental: (§1) LN18 and LN229 cells naturally expressing ObR were purchased from ATCC and were cultured in DMEM low glucose plus 5% fetal bovine serum.
(§2) Seventy percent confluent cultures of LN18 and LN229 cells were synchronized in serum-free medium (DMEM plus 10 μM FeSO4 and 0.5% bovine serum albumin—BSA) for 48 hours and then treated with leptin and/or compounds (different doses) for 3 days. Cell numbers before and after treatment were determined by direct counting the cells with trypan blue exclusion. All assays were done in triplicate and repeated 3-6 times. The cell numbers were expressed as means±standard error. The results were statistically evaluated by Student's t-test and analysis of variance (ANOVA). Values of p<0.05 were considered statistically significant.
(§3) Stimulation of ObR-positive cells by compound (1) was evaluated. A true agonist of an ObR-positive receptor should stimulate the growth of ObR-positive cells when added alone and should not antagonize the actions of leptin in the same cells. In order to determine whether compound (1) is a true agonist, the ObR-positive, CNS-resident glioblastoma cell lines LN229 and LN18 were used. EC values for this peptide were measured without exogenous leptin present, and IC values with 12 nM leptin added.

normal F344 male rats = assay: Rat appetite control, intranasal administration to normal rats; type: in vivo; conditions: 0.1 mg/kg/day intranasal
Experimental: Eight 6-weeks-old male […] rats were kept on regular laboratory diet. At noon time for 10 days, the animals were weighed, turned upside down, and received 0.1 mg/kg/day of a compound of the invention ([…]) or physiological solution ([…]) dripped in 10 μL volume into their nose. On day 15, the rats were weighed and sacrificed (cervical dislocation), and bled for laboratory blood analysis. Their brains, livers, kidneys and spleens were removed and weighed.
Rats were allowed to lab chow ad libitum, and treatment lasted for 10 days with 0.1 mg/kg/day single dose of compound (1) dropped into the nose in 10 μL salt solution. Untreated control animals were administered 10 μL physiological salt solution. Results are represented in FIG. 5.

C57BL/6 mice = assay: Short chronic toxicity study in peanut-fed mice; type: in vivo; conditions: 1.5 or 4.0 mg/kg ip once daily, 4 days
Experimental: Eight C57BL/6 mice, 6 weeks of age (8 mice: 4 males, 4 females), were fed with peanut diet for 6 days. They were split in three different groups. The first group was left untreated (4 mice: 2 males, 2 females). The second group received a compound of the invention once daily intraperitoneally at 1.5 mg/kg for 4 days (2 mice: 1 male, 1 female). The third group received a compound of the invention once daily intraperitoneally at 4.0 mg/kg (2 mice: 1 male, 1 female) for 4 days. The animals were inspected daily for signs of disease or discomfort. After 5 days of treatment, the mice were weighed, sacrificed with CO2 inhalation, and bled for laboratory blood analysis. Their brains, livers, kidneys and spleens were inspected, removed and weighed.
Eight mice (4 males, 4 females) were fed with peanut diet for 6 days. After that, they were left untreated (2 males, 2 females), or received compound (1) once daily at 1.5 mg/kg (1 male, 1 female) or 4.0 mg/kg (1 male, 1 female) for 4 days.

[2] = In vivo biodistribution of fluorescent-labelled peptide
Experimental: Compound (2), labeled with fluorescent dye Alexa Fluor® 680, was prepared and purified by reverse phase HPLC. 5 μg of the compound were injected intraperitoneally into anesthetized female Balb/c mice. While sleeping, the animals were placed into the fluorescence microscope chamber. Fluorescence exposure pictures were taken with a Kodak 4000MM camera set to 695 nm emission wavelength at five minute intervals afterwards for 80 min.

[3] = tested on: ObR-positive LN18 glioblastoma cells; assay: Cell proliferation assay, LN18 glioblastoma cells; type: cell-based; conditions: data not shown
Experimental: as §1, §2, §3

[4] = tested on: high-fat induced obesity (DIO) C57BL/6 mice; assay: Mouse model of obesity and leptin resistance (DIO mice); type: in vivo; conditions: for Blood glucose level / Blood total cholesterol level: DIO mice; for resistance to treatment (weight curves): 10-day ip treatment, leptin 0.1, compound (1) 0.02 and 0.1 mg/kg/day
Experimental: Animals were sacrificed by CO2 inhalation. Livers were removed and fixed in 10% buffered formaldehyde, pH, 7.4. After 24 hour fixation, liver specimens were dehydrated in graded ethanol and placed into methyl benzoate for an hour. The specimens were then transferred to xylene and embedded into paraffin. 6-μm thick paraffin sections were deparaffinized and stained with H&E. Photomicrographs were taken by using a Zeiss light microscope equipped with a CCD camera. The final magnification of the pictures was 200-fold.
An animal model for leptin resistance was used to evaluate compounds of the invention. In this model, based on high-fat induced obesity (DIO) of normal mice, the animals are fed with a diet containing 40-60% fat and become resistant to leptin treatment (Steinberg et al., 2006, Endocrinology 147: 3906-3914; Nakagawa et al., 2003, J. Obesity 27: 557-565). Normal C57BL/6 mice were fed with regular 6% lab chow until 3 weeks of age when their diet was switched to peanuts only. Peanuts have 47-50% dry fat content, and are considered a typical high-fat food (Isleib et al., 2004, J. Agric. Food Chem. 52: 3165-3168). DIO mice develop peripheral leptin resistance after 16 days of high-fat diet (van Heek et al., 1997, J. Clin. Invest. 99:3 85-390). In this study, the mice were fed peanuts for 5 weeks. The animals had access to water and peanuts ad libitum. After 3 weeks (total age 6 weeks) a group of 6 mice remained untreated, and 4 groups received leptin or a compound of the invention.
Mice were weighed daily and received a daily single dose (around noon time) intraperitoneally with the following scheme: Group 1 (6 mice: 3 males, 3 females) —physiological solution (control); Group 2 (6 mice: 3 males, 3 females) —0.1 mg/kg/day leptin; Group 3 (4 mice: 2 males, 2 females) —0.02 mg/kg/day compound of the invention; Group 4 (6 mice: 3 males, 3 females) —0.1 mg/kg/day compound of the invention; and Group 5 (4 mice: 2 males, 2 females) —0.5 mg/kg/day compound of the invention. After 10 days of treatment, one male and one female mouse from each group were sacrificed and bled, and their livers, spleens, kidneys and brains were removed for histology and toxicity analysis.
The DIO mice were allowed to eat peanut ad libitum. They were weighed daily and received the following intraperitoneal treatment at noontime: Group 1 (6 mice: 3 males, 3 females) —physiological solution (control); Group 2 (6 mice: 3 males, 3 females) —0.1 mg/kg/day of leptin; Group 3 (4 mice: 2 males, 2 females) —0.02 mg/kg/day of compound (1); Group 4 (6 mice: 3 males, 3 females) —0.1 mg/kg/day of compound (1); and Group 5 (4 mice: 2 males, 2 females) —0.5 mg/kg/day of compound (1).

obese C57BL/6 mice = assay: Pregnancy test after treatment of obese mice; type: in vivo; conditions: for Number of pregnancy incidents: observed 5 weeks
Source text: The remaining mice after the treatment with leptin or a compound of the invention were returned to 6% fat lab chow diet, and locked into cages in couples. […] The two successful litters were examined for growth and behavioral patterns.
Upon cessation of the weight gain assay and laboratory work, the remaining mice were returned to 6% fat lab chow diet, and locked into cages in couples to investigate whether treatment with leptin or compound (1) improved their fertility rates. […] Neither of two couples of control, untreated mice produced litters, as expected (Table 3). […] Leptin treatment somewhat improved the situation because one of the two couples produced a litter. As for the couple of mice treated with the 0.5 mg/kg/day dose of compound (1), the female became pregnant immediately and delivered 6 healthy pups in less than a month (Table 3).

[5] = 5 μg intraperitoneally, fluorescence imaging

CC(=O)N[C@H]1[C@@H](O[C@H](C)[C@H](NC(=O)[C@H](CO)NC(=O)[C@@H](N)Cc2cc(I)c(O)c(I)c2)C(=O)N[C@@H](CCC(=O)O)C(=O)N[C@H](C(=O)N[C@H](C(=O)N[C@@H](C)C(=O)N[C@@H](CC(C)C)C(=O)N[C@@H](CO)C(=O)N[C@@H](CCCNC(=N)N)C(=O)NCCCCCC(N)=O)C(C)C)C(C)C)O[C@H](CO)[C@H](O)[C@@H]1O [compound (1), Tyr(I2)-Ser-Thr(α-GalNAc)-Glu-Val-Val-Ala-Leu-Ser-Arg-AcpNH2] (H-[Tyr(3,5-I2)]ST(αGalNAc)EVVALSR[Ahx]-NH2; N-terminus assumed)
Selectivity (EC/IC) [1]: >100 | Selectivity (EC/IC) ([1]; listed as Compound (1)): greater than 100 | IC100 ([1]; LN229 proliferation, with 12 nM leptin added): >100 nM | EC100 ([1]; LN229 proliferation, without exogenous leptin, 3 days): <1 nM | Antagonistic properties (ICs) to leptin-induced LN229 stimulation ([1]; with 12 nM leptin added): ≥ 100 nM | weight growth less than untreated controls (normal F344 male rats; 10 days, day 11): 10.8 g | net total body weight (tbw) loss (normal F344 male rats; 10 days, day 14): 6.8% | weight growth less than untreated controls (normal F344 male rats; 10 days, day 14): 11.7 g | average total blood cholesterol level (normal F344 male rats; at sacrifice): 1.28 mmol/L | organ weight, brain (normal F344 male rats; at sacrifice): 1.2 g | organ weight, kidney (normal F344 male rats; at sacrifice): 1.5 g | organ weight, liver (normal F344 male rats; at sacrifice): 6.9 g | organ weight, spleen (normal F344 male rats; at sacrifice): 0.42 g | average organ weight, brain (C57BL/6 mice): 0.3 g | average organ weight, kidney (females) (C57BL/6 mice): 0.20 g | average organ weight, kidney (males) (C57BL/6 mice): 0.25 g | average organ weight, liver (C57BL/6 mice): 1.06 g | average organ weight, spleen (C57BL/6 mice): 0.09 g | gross necropsy (C57BL/6 mice): no signs of toxicity | weight change during compound addition (C57BL/6 mice): Three of the 4 treated mice lost weight | BBB-penetrating ability, by inference from compound (2) ([2]; inferred from labelled analogue): good BBB-penetrating ability | agonistic activity [3]: picomolar agonistic activities | weight reduction relative to untreated controls at end of treatment ([4]; 0.02 mg/kg/day ip, 10 days): 0.5 g | Blood glucose level ([4]; 0.02 mg/kg/day ip): 8.45 mM/L | Blood total cholesterol level ([4]; 0.02 mg/kg/day ip): 2.51 mM/L | weight reduction relative to untreated controls at end of treatment ([4]; 0.1 mg/kg/day ip, 10 days): 0.6 g | Blood glucose level ([4]; 0.1 mg/kg/day ip): 8.55 mM/L | Blood total cholesterol level ([4]; 0.1 mg/kg/day ip): 2.77 mM/L | blood cholesterol level reduction ([4]; 0.5 mg/kg/day ip): 9% | glucose level reduction ([4]; 0.5 mg/kg/day ip): 17% | liver fat cell content (histology) ([4]; 0.5 mg/kg/day ip): fatty cytoplasm could no longer be observed; also recorded: fat cells were completely eliminated from the liver | net total body weight loss ([4]; 0.5 mg/kg/day ip, 10 days): 6.5% | relative weight loss compared to untreated mice ([4]; 0.5 mg/kg/day ip, 10 days): 1.3 g | Blood glucose level ([4]; 0.5 mg/kg/day ip): 7.06 mM/L | Blood total cholesterol level ([4]; 0.5 mg/kg/day ip): 2.08 mM/L | liver fat cell content, dose dependence ([4]; 0.02, 0.1 and 0.5 mg/kg/day ip): lowered the fatty cell content of the liver in a dose-dependent manner | resistance to treatment (weight curves) [4]: lack of resistance to peptide treatment | Number of pregnancy incidents (obese C57BL/6 mice; after 0.02 mg/kg/day ip): 0 | Number of pregnancy incidents (obese C57BL/6 mice; after 0.1 mg/kg/day ip): 0 | healthy pups delivered (obese C57BL/6 mice; after 0.5 mg/kg/day ip, one couple): 6 | Number of pregnancy incidents (obese C57BL/6 mice; after 0.5 mg/kg/day ip): 1 | fertility of couples (obese C57BL/6 mice; low-dose regimen (0.02 and 0.1 mg/kg/day)): remained infertile

Alexa680-Tyr(I2)-Ser-Thr(α-GalNAc)-Glu-Val-Val-Ala-Leu-Ser-Arg-AcpNH2 ({Alexa680-Tyr(3,5-I2)-Ser-Thr(α-GalNAc)}-EVVALSR-{Acp-NH2}; reading uncertain) [compound (2)]
BBB-penetrating ability [2, 5]: good BBB-penetrating ability | distribution into peptide elimination organs (kidneys, liver, spleen) [2, 5]: distributed into the usual peptide elimination organs within one hour from administration | presence in tail, limbs and brain [2, 5]: also found in the tail, the limbs and the brain

leptin: Human leptin purchased from R&D Systems; 146-amino acid neurohormone, native ObR ligand
liver fat cell content (histology) ([4]; 0.1 mg/kg/day ip): acinoperipheral regions of the liver still contained fat cells | weight reduction relative to untreated controls at end of treatment ([4]; 0.1 mg/kg/day ip, 10 days): 0.3 g | Blood glucose level ([4]; 0.1 mg/kg/day ip): 5.22 mM/L | Blood total cholesterol level ([4]; 0.1 mg/kg/day ip): 2.47 mM/L | resistance to treatment (weight curves) [4]: fast acquisition of resistance | Number of pregnancy incidents (obese C57BL/6 mice; after 0.1 mg/kg/day ip): 1
